The values below are quoted from earlier work in patent US20230416797A1, “MODULATING ANTIMICROBIAL PEPTIDE HALF-LIFE” (Syngulon SA., priority 2020, published 2023).

Series [1] concerns fungal microbial organism. As to conditions: from B. subtilis; Zuber et al. (1993), Shenin et al. (1995).
In series [2] the test system is Candida species. As to conditions: against Candida species; Shekh and Roy (2012).
Series [3] relates to pathogenic Gram-positive and Gram-negative bacteria. As to conditions: against pathogenic Gram-positive and Gram-negative bacteria; Acuña et al. (2012).

As for botrycidin AJ1316, the antifungal activities result in series [1] is listed as “antifungal activities”.

Turning to aurin B1, in series [1], the antifungal activities entry was “antifungal activities”. Consider “WLPPAGLLGRCGRWFRPWLLWLQ SGAQY KWLGNLFGLGPK (WLPPAGLLGRCGRWFRPWLLWLQSGAQYKWLGNLFGLGPK; listed as Enterococcus faecalis) [SEQ ID NO: 1, an Enterococcus faecalis peptide]”, for which, in series [2], the neutralizing activity entry was “neutralizing activity”.

B1: Ent35-MccV: fusion bacteriocin: N-terminal glycine, Enterocin CRL35, a linker comprising three glycines, and a C-terminal Microcin V (protein)
chain: GKYYGNGVSCNKKGCSVDWGRAIGIIGNNSAANLATGGAAGWKSGGGASGRDIAMAIGTLSGQFVAGGIGAAAGGVAGGAIYDYASTHKPNPAMSPSGLGGTIKQKPEGIPSEAWNYAAGRLCNWSPNNLSDVCL
modifications: Hybrid bacteriocin Ent35-MccV
notes: fusion bacteriocin: N-terminal glycine, Enterocin CRL35, a linker comprising three glycines, and a C-terminal Microcin V
With B1, in series [3], the antimicrobial activity entry was “antimicrobial activity”.
